Results published in ChEMBL document CHEMBL1201862, “PubChem BioAssay data set” (2004).
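Values below derive from 48-hour exposures of cells grown in 96-well plates, with endpoints linearly interpolated between the two concentrations bracketing the appropriate inhibition level. Abbreviation: GI50, concentration required for 50% inhibition of growth.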 Active and inactive are the calls of the source. Rule as the data show it: active = GI50 up to about 1.1 µM and inactive = higher.

How the values were obtained:
Assay in all cases: DTP human tumour cell line panel, 48 h
[1] = tested on: PC-3
[2] = tested on: ACHN
[3] = tested on: CAKI-1
[4] = tested on: DU-145
[5] = tested on: SNB-19
[6] = tested on: SNB-75
[7] = tested on: MDA-MB-435
[8] = tested on: SK-OV-3
[9] = tested on: SK-MEL-28
[10] = tested on: UACC-62
[11] = tested on: NCI-H23
[12] = tested on: BT-549
[13] = tested on: MDA-N
[14] = tested on: SF-268
[15] = tested on: NCI/ADR-RES
[16] = tested on: UO-31
[17] = tested on: OVCAR-4
[18] = tested on: OVCAR-8
[19] = tested on: K562
[20] = tested on: TK-10
[21] = tested on: Malme-3M
[22] = tested on: MDA-MB-231
[23] = tested on: SK-MEL-2
[24] = tested on: A498
[25] = tested on: RXF 393
[26] = tested on: SN12C
[27] = tested on: MCF7
[28] = tested on: HOP-62
[29] = tested on: M14
[30] = tested on: HL-60
[31] = tested on: SF-295
[32] = tested on: Hs-578T
[33] = tested on: OVCAR-5
[34] = tested on: HCC 2998
[35] = tested on: SK-MEL-5
[36] = tested on: SW-620
[37] = tested on: NCI-H460
[38] = tested on: SF-539
[39] = tested on: IGROV-1
[40] = tested on: HT-29
[41] = tested on: LOX IMVI
[42] = tested on: A549
[43] = tested on: HCT-15
[44] = tested on: KM12
[45] = tested on: NCI-H226
[46] = tested on: T47D
[47] = tested on: EKVX
[48] = tested on: NCI-H522
[49] = tested on: RPMI-8226
[50] = tested on: OVCAR-3
[51] = tested on: HOP-92
[52] = tested on: COLO 205
[53] = tested on: HCT-116
[54] = tested on: UACC-257
[55] = tested on: CCRF-CEM
[56] = tested on: U-251
[57] = tested on: MOLT-4
[58] = tested on: SR
[59] = tested on: 786-0

Cc1ccc(N/N=C2\C3=C(CCC(C)(C)O3)C(=O)c3ccccc32)cc1 was tested, and the GI50 [1] was 37.6 µM (inactive), the GI50 [2] was 23.9 µM (inactive) and the GI50 [3] was 28.2 µM (inactive). The GI50 [4] was 12.4 µM (inactive), the GI50 [5] was 20.8 µM (inactive) and the GI50 [6] was 19.2 µM (inactive). For the same compound, the GI50 [7] was 17.9 µM (inactive), the GI50 [8] was > 100 µM (inactive) and the GI50 [9] was 21.9 µM (inactive). The GI50 [10] was 14.9 µM (inactive), the GI50 [11] was 10.8 µM (inactive) and the GI50 [12] was 26.1 µM (inactive). The GI50 [13] was 4.43 µM (inactive), the GI50 [14] was 30.3 µM (inactive) and the GI50 [15] was 25.6 µM (inactive). For the same compound, the GI50 [16] was 23.4 µM (inactive), the GI50 [17] was 18.2 µM (inactive) and the GI50 [18] was 34.4 µM (inactive). The GI50 [19] was 32.4 µM (inactive), the GI50 [20] was 26.8 µM (inactive) and the GI50 [21] was 9.16 µM (inactive). The GI50 [22] was 56.1 µM (inactive), the GI50 [23] was 18.9 µM (inactive) and the GI50 [24] was 18.3 µM (inactive). For the same compound, the GI50 [25] was 32.4 µM (inactive), the GI50 [26] was 14.6 µM (inactive) and the GI50 [27] was 13.7 µM (inactive). The GI50 [28] was 20.6 µM (inactive), the GI50 [29] was 16.9 µM (inactive) and the GI50 [30] was 15.2 µM (inactive). The GI50 [31] was 14.7 µM (inactive), the GI50 [32] was 11.6 µM (inactive) and the GI50 [33] was 18.4 µM (inactive). For the same compound, the GI50 [34] was 19.7 µM (inactive), the GI50 [35] was 4.17 µM (inactive) and the GI50 [36] was 33.8 µM (inactive). For the same compound, the GI50 [37] was 17.4 µM (inactive), the GI50 [38] was 39.3 µM (inactive) and the GI50 [39] was 29.1 µM (inactive). The GI50 [40] was 18.8 µM (inactive), the GI50 [41] was 10.3 µM (inactive) and the GI50 [42] was 16 µM (inactive). For the same compound, the GI50 [43] was 27.5 µM, the GI50 [44] was 21.8 µM (inactive) and the GI50 [45] was 35.2 µM (inactive). For the same compound, the GI50 [46] was 18.2 µM (inactive), the GI50 [47] was 25.5 µM (inactive) and the GI50 [48] was 32.4 µM (inactive). The GI50 [49] was 26.5 µM (inactive), the GI50 [50] was 24.2 µM (inactive) and the GI50 [51] was 43.5 µM (inactive). The GI50 [52] was 24.7 µM (inactive), the GI50 [53] was 21.3 µM (inactive) and the GI50 [54] was 11 µM (inactive). For the same compound, the GI50 [55] was 15.1 µM (inactive), the GI50 [56] was 37.5 µM (inactive) and the GI50 [57] was 28.8 µM (inactive). The GI50 [58] was 16.5 µM (inactive) and the GI50 [59] was 28 µM (inactive).
